# According to patent US20230085307A1, “PYRIDAZINONE COMPOUND AND HERBICIDE” (NISSAN CHEMICAL CORPORATION, priority 2019, published 2023):
# Legend:
# late watergrass = experiment: Test Example 1: herbicidal activity, application before weed generation under submerged conditions (Table 16, symbol A); type: in vivo, late watergrass (Echinochloa oryzicola); details: amount of applied herbicide 320 g/ha
# Summary of the method: (§1)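 Emulsion formulation, water-diluted to set dose, was put onto the flooded surface (4 cm depth, alluvial soil) the same day weeds were sown and 2.5-leaf rice transplanted. After 3 weeks at 25-30 °C under glass, each species was rated 0 (≤5% kill) to 5 (≥90% kill).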
# Japanese bulrush = experiment: Test Example 1: herbicidal activity, application before weed generation under submerged conditions (Table 16, symbol B); type: in vivo, Japanese bulrush (Schoenoplectus juncoides); details: amount of applied herbicide 320 g/ha
# Summary of the method: as §1
# oval-leafed pondweed = experiment: Test Example 1: herbicidal activity, application before weed generation under submerged conditions (Table 16, symbol C); type: in vivo, oval-leafed pondweed (Monochoria vaginalis); details: amount of applied herbicide 320 g/ha
# Summary of the method: as §1
# barnyard grass [1] = experiment: Test Example 3: herbicidal effect by foliage application, Wagner pot (Table 18, symbol H); type: in vivo, barnyard grass (Echinochloa crus-galli); details: 320 g/ha
# Summary of the method: (§2)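 Plants were sown in alluvial soil held under 0.1–0.5 cm standing water and grown 14 days in a greenhouse at 25–30 °C. An emulsifiable formulation, water-diluted to the set dose, was then sprayed onto the foliage, and effects were scored three weeks later using previously defined criteria.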
# Chinese sprangletop = experiment: Test Example 3: herbicidal effect by foliage application, Wagner pot (Table 18, symbol D); type: in vivo, chinese sprangletop (Leptochloa chinensis); details: 320 g/ha
# Summary of the method: as §2
# rice flat sedge = experiment: Test Example 3: herbicidal effect by foliage application, Wagner pot (Table 18, symbol E); type: in vivo, rice flat sedge (Cyperus iria); details: 320 g/ha
# Summary of the method: as §2
# southern crabgrass [2] = experiment: Test Example 4: herbicidal effect by soil treatment (Table 19, symbol F); type: in vivo, southern crabgrass (Digitaria ciliaris); details: amount of applied herbicide 320 g/ha
# Summary of the method: (§3)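 Pre-emergence style soil spray: seeds under ~1.5 cm sterilized diluvial soil received a uniform coat of emulsion diluted to the predetermined herbicide amount. Greenhouse 25–30° C; readout at week three on previously defined criteria.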
# green foxtail [3] = experiment: Test Example 4: herbicidal effect by soil treatment (Table 19, symbol G); type: in vivo, green foxtail (Setaria viridis); details: amount of applied herbicide 320 g/ha
# Summary of the method: as §3
# barnyard grass [4] = experiment: Test Example 4: herbicidal effect by soil treatment (Table 19, symbol H); type: in vivo, barnyard grass (Echinochloa crus-galli); details: amount of applied herbicide 320 g/ha
# Summary of the method: as §3
# wild oat [5] = experiment: Test Example 4: herbicidal effect by soil treatment (Table 19, symbol I); type: in vivo, wild oat (Avena fatua); details: amount of applied herbicide 320 g/ha
# Summary of the method: as §3
# blackgrass [6] = experiment: Test Example 4: herbicidal effect by soil treatment (Table 19, symbol J); type: in vivo, blackgrass (Alopecurus myosuroides); details: amount of applied herbicide 320 g/ha
# Summary of the method: as §3
# Italian ryegrass [7] = experiment: Test Example 4: herbicidal effect by soil treatment (Table 19, symbol K); type: in vivo, Italian ryegrass (Lolium multiflorum); details: amount of applied herbicide 320 g/ha
# Summary of the method: as §3
# windgrass [8] = experiment: Test Example 4: herbicidal effect by soil treatment (Table 19, symbol L); type: in vivo, windgrass (Apera spica-venti); details: amount of applied herbicide 320 g/ha
# Summary of the method: as §3
# velvetleaf [9] = experiment: Test Example 4: herbicidal effect by soil treatment (Table 19, symbol M); type: in vivo, velvetleaf (Abutilon theophrasti); details: amount of applied herbicide 320 g/ha
# Summary of the method: as §3
# redroot pigweed [10] = experiment: Test Example 4: herbicidal effect by soil treatment (Table 19, symbol N); type: in vivo, redroot pigweed (Amaranthus retroflexus); details: amount of applied herbicide 320 g/ha
# Summary of the method: as §3
# lambsquarters [11] = experiment: Test Example 4: herbicidal effect by soil treatment (Table 19, symbol O); type: in vivo, lambsquarters (Chenopodium album); details: amount of applied herbicide 320 g/ha
# Summary of the method: as §3
# chickweed [12] = experiment: Test Example 4: herbicidal effect by soil treatment (Table 19, symbol P); type: in vivo, common chickweed (Stellaria media); details: amount of applied herbicide 320 g/ha
# Summary of the method: as §3
# false cleavers [13] = experiment: Test Example 4: herbicidal effect by soil treatment (Table 19, symbol Q); type: in vivo, false cleavers (Galium spurium); details: amount of applied herbicide 320 g/ha
# Summary of the method: as §3
# persian speedwell [14] = experiment: Test Example 4: herbicidal effect by soil treatment (Table 19, symbol R); type: in vivo, Persian speedwell (Veronica persica); details: amount of applied herbicide 320 g/ha
# Summary of the method: as §3
# southern crabgrass [15] = experiment: Test Example 5: herbicidal effect by foliage application, plastic box (Table 20, symbol F); type: in vivo, southern crabgrass (Digitaria ciliaris)
# Summary of the method: (§4)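 Plants were sown into sterilized diluvial soil under about 1.5 cm cover and kept in a greenhouse at 25° C. to 30° C. Fourteen days on, foliage received an even spray of the diluted emulsion. Herbicidal or crop effect was judged three weeks afterwards.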
# green foxtail [16] = experiment: Test Example 5: herbicidal effect by foliage application, plastic box (Table 20, symbol G); type: in vivo, green foxtail (Setaria viridis)
# Summary of the method: as §4
# barnyard grass [17] = experiment: Test Example 5: herbicidal effect by foliage application, plastic box (Table 20, symbol H); type: in vivo, barnyard grass (Echinochloa crus-galli)
# Summary of the method: as §4
# wild oat [18] = experiment: Test Example 5: herbicidal effect by foliage application, plastic box (Table 20, symbol I); type: in vivo, wild oat (Avena fatua)
# Summary of the method: as §4
# blackgrass [19] = experiment: Test Example 5: herbicidal effect by foliage application, plastic box (Table 20, symbol J); type: in vivo, blackgrass (Alopecurus myosuroides)
# Summary of the method: as §4
# Italian ryegrass [20] = experiment: Test Example 5: herbicidal effect by foliage application, plastic box (Table 20, symbol K); type: in vivo, Italian ryegrass (Lolium multiflorum)
# Summary of the method: as §4
# windgrass [21] = experiment: Test Example 5: herbicidal effect by foliage application, plastic box (Table 20, symbol L); type: in vivo, windgrass (Apera spica-venti)
# Summary of the method: as §4
# velvetleaf [22] = experiment: Test Example 5: herbicidal effect by foliage application, plastic box (Table 20, symbol M); type: in vivo, velvetleaf (Abutilon theophrasti)
# Summary of the method: as §4
# redroot pigweed [23] = experiment: Test Example 5: herbicidal effect by foliage application, plastic box (Table 20, symbol N); type: in vivo, redroot pigweed (Amaranthus retroflexus)
# Summary of the method: as §4
# lambsquarters [24] = experiment: Test Example 5: herbicidal effect by foliage application, plastic box (Table 20, symbol O); type: in vivo, lambsquarters (Chenopodium album)
# Summary of the method: as §4
# chickweed [25] = experiment: Test Example 5: herbicidal effect by foliage application, plastic box (Table 20, symbol P); type: in vivo, common chickweed (Stellaria media)
# Summary of the method: as §4
# false cleavers [26] = experiment: Test Example 5: herbicidal effect by foliage application, plastic box (Table 20, symbol Q); type: in vivo, false cleavers (Galium spurium)
# Summary of the method: as §4
# persian speedwell [27] = experiment: Test Example 5: herbicidal effect by foliage application, plastic box (Table 20, symbol R); type: in vivo, Persian speedwell (Veronica persica)
# Summary of the method: as §4
# [28] = foliage application, 320 g/ha, three weeks after application
# [29] = amount of applied herbicide 320 g/ha, foliage application after 14-day growth, evaluated three weeks after application
SMILES,"Herbicidal effect, A: late watergrass (late watergrass)","Herbicidal effect, B: Japanese bulrush (Japanese bulrush)","Herbicidal effect, C: oval-leafed pondweed (oval-leafed pondweed)",herbicidal effect on barnyard grass (H) (barnyard grass [1]),herbicidal effect on Chinese sprangletop (D) (Chinese sprangletop),herbicidal effect on rice flat sedge (E) (rice flat sedge),"F: southern crabgrass, herbicidal effect grade (southern crabgrass [2])","G: green foxtail, herbicidal effect grade (green foxtail [3])","H: barnyard grass, herbicidal effect grade (barnyard grass [4])","I: wild oat, herbicidal effect grade (wild oat [5])","J: blackgrass, herbicidal effect grade (blackgrass [6])","K: Italian ryegrass, herbicidal effect grade (Italian ryegrass [7])","L: windgrass, herbicidal effect grade (windgrass [8])","M: velvetleaf, herbicidal effect grade (velvetleaf [9])","N: redroot pigweed, herbicidal effect grade (redroot pigweed [10])","O: lambsquarters, herbicidal effect grade (lambsquarters [11])","P: chickweed, herbicidal effect grade (chickweed [12])","Q: false cleavers, herbicidal effect grade (false cleavers [13])","R: persian speedwell, herbicidal effect grade (persian speedwell [14])",further results
CCCC(=O)Oc1c(C)nn(C)c(=O)c1-c1c(-c2ccc(SC)cc2)sc2cc(OC)ccc12 [3-075],1 (Herbicidal rate of 5% or more and less than 20%),1 (Herbicidal rate of 5% or more and less than 20%),2 (Herbicidal rate of 20% or more and less than 40%),0 (Herbicidal rate of 5% or less (almost no effect)),3 (Herbicidal rate of 40% or more and less than 70%),3 (Herbicidal rate of 40% or more and less than 70%),0 (Herbicidal rate of 5% or less (almost no effect)),0 (Herbicidal rate of 5% or less (almost no effect)),0 (Herbicidal rate of 5% or less (almost no effect)),0 (Herbicidal rate of 5% or less (almost no effect)),0 (Herbicidal rate of 5% or less (almost no effect)),0 (Herbicidal rate of 5% or less (almost no effect)),0 (Herbicidal rate of 5% or less (almost no effect)),0 (Herbicidal rate of 5% or less (almost no effect)),3 (Herbicidal rate of 40% or more and less than 70%),3 (Herbicidal rate of 40% or more and less than 70%),2 (Herbicidal rate of 20% or more and less than 40%),0 (Herbicidal rate of 5% or less (almost no effect)),4 (Herbicidal rate of 70% or more and less than 90%),"F: southern crabgrass, herbicidal effect grade (southern crabgrass [15]; [28]): 3 (Herbicidal rate of 40% or more and less than 70%); G: green foxtail, herbicidal effect grade (green foxtail [16]; [28]): 3 (Herbicidal rate of 40% or more and less than 70%); H: barnyard grass, herbicidal effect grade (barnyard grass [17]; [28]): 3 (Herbicidal rate of 40% or more and less than 70%); I: wild oat, herbicidal effect grade (wild oat [18]; [28]): 0 (Herbicidal rate of 5% or less (almost no effect)); J: blackgrass, herbicidal effect grade (blackgrass [19]; [28]): 0 (Herbicidal rate of 5% or less (almost no effect)); K: Italian ryegrass, herbicidal effect grade (Italian ryegrass [20]; [28]): 0 (Herbicidal rate of 5% or less (almost no effect)); L: windgrass, herbicidal effect grade (windgrass [21]; [28]): 0 (Herbicidal rate of 5% or less (almost no effect)); M: velvetleaf, herbicidal effect grade (velvetleaf [22]; [28]): 0 (Herbicidal rate of 5% or less (almost no effect)); N: redroot pigweed, herbicidal effect grade (redroot pigweed [23]; [28]): 4 (Herbicidal rate of 70% or more and less than 90%); O: lambsquarters, herbicidal effect grade (lambsquarters [24]; [28]): 4 (Herbicidal rate of 70% or more and less than 90%); P: chickweed, herbicidal effect grade (chickweed [25]; [28]): 5 (Herbicidal rate of 90% or more (almost completely withered)); Q: false cleavers, herbicidal effect grade (false cleavers [26]; [28]): 5 (Herbicidal rate of 90% or more (almost completely withered)); R: persian speedwell, herbicidal effect grade (persian speedwell [27]; [28]): 5 (Herbicidal rate of 90% or more (almost completely withered))"
CCCC(=O)Oc1c(C)nn(C)c(=O)c1-c1c(-c2ccccc2OCC)sc2cc(F)c(F)cc12 [5-017],3 (Herbicidal rate of 40% or more and less than 70%),2 (Herbicidal rate of 20% or more and less than 40%),2 (Herbicidal rate of 20% or more and less than 40%),5 (Herbicidal rate of 90% or more (almost completely withered)),0 (Herbicidal rate of 5% or less (almost no effect)),5 (Herbicidal rate of 90% or more (almost completely withered)),4 (Herbicidal rate of 70% or more and less than 90%),4 (Herbicidal rate of 70% or more and less than 90%),4 (Herbicidal rate of 70% or more and less than 90%),3 (Herbicidal rate of 40% or more and less than 70%),0 (Herbicidal rate of 5% or less (almost no effect)),0 (Herbicidal rate of 5% or less (almost no effect)),2 (Herbicidal rate of 20% or more and less than 40%),3 (Herbicidal rate of 40% or more and less than 70%),5 (Herbicidal rate of 90% or more (almost completely withered)),4 (Herbicidal rate of 70% or more and less than 90%),4 (Herbicidal rate of 70% or more and less than 90%),4 (Herbicidal rate of 70% or more and less than 90%),5 (Herbicidal rate of 90% or more (almost completely withered)),"Herbicidal effect by foliage application, F: southern crabgrass (southern crabgrass [15]; [29]): 1 (Herbicidal rate of 5% or more and less than 20%); Herbicidal effect by foliage application, G: green foxtail (green foxtail [16]; [29]): 0 (Herbicidal rate of 5% or less (almost no effect)); Herbicidal effect by foliage application, H: barnyard grass (barnyard grass [17]; [29]): 3 (Herbicidal rate of 40% or more and less than 70%); Herbicidal effect by foliage application, I: wild oat (wild oat [18]; [29]): 3 (Herbicidal rate of 40% or more and less than 70%); Herbicidal effect by foliage application, J: blackgrass (blackgrass [19]; [29]): 4 (Herbicidal rate of 70% or more and less than 90%); Herbicidal effect by foliage application, K: Italian ryegrass (Italian ryegrass [20]; [29]): 0 (Herbicidal rate of 5% or less (almost no effect)); Herbicidal effect by foliage application, L: windgrass (windgrass [21]; [29]): 3 (Herbicidal rate of 40% or more and less than 70%); Herbicidal effect by foliage application, M: velvetleaf (velvetleaf [22]; [29]): 4 (Herbicidal rate of 70% or more and less than 90%); Herbicidal effect by foliage application, N: redroot pigweed (redroot pigweed [23]; [29]): 2 (Herbicidal rate of 20% or more and less than 40%); Herbicidal effect by foliage application, O: lambsquarters (lambsquarters [24]; [29]): 1 (Herbicidal rate of 5% or more and less than 20%); Herbicidal effect by foliage application, P: chickweed (chickweed [25]; [29]): 5 (Herbicidal rate of 90% or more (almost completely withered)); Herbicidal effect by foliage application, Q: false cleavers (false cleavers [26]; [29]): 5 (Herbicidal rate of 90% or more (almost completely withered)); Herbicidal effect by foliage application, R: persian speedwell (persian speedwell [27]; [29]): 5 (Herbicidal rate of 90% or more (almost completely withered))"
